In patent US10294202B2, “Pyrrolidinones as herbicides” (FMC Corporation, priority 2013, dated 2019):

Columns and labels:
sedge, umbrella = assay: Test B flooded paddy test; assay type: in vivo, Cyperus difformis; conditions: 500 g ai/ha, Flood; scale of 0 to 100 where 0 is no effect and 100 is complete control
In short: (§1)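 Scoring: visual, compared with untreated controls, 0 = no effect through 100 = complete control, taken 13 to 15 days after treatment in the greenhouse. Compounds had been added to paddy water over soil flooded 3 cm deep at the plants' 2-leaf stage.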

blackgrass = assay: Test A postemergence herbicide test; assay type: in vivo, Alopecurus myosuroides
In short: (§2)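 Young potted plants in a loam–sand mix, one- to two-leaf stage and 2–10 cm tall, receive the test chemical postemergence and stay in a greenhouse for approximately 10 days. Injury is then judged by eye against untreated plants, scored 0 (none) to 100 (complete control).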

ragweed = assay: Test A pre-/postemergence herbicide test; assay type: in vivo, Ambrosia elatior; conditions: for Plant response rating, Ragweed: 0 to 100 scale
In short: (§3)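 Seeds in loam–sand blend received preemergence directed soil spray; separately, plants 2–10 cm at one- to two-leaf stage received postemergence spray, both with test chemicals in non-phytotoxic solvent with surfactant. After ~10 days in greenhouse, injury rated visually against untreated controls, 0 (no effect) to 100 (complete control).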

barnyardgrass [1] = assay: Test A pre-/postemergence herbicide test; assay type: in vivo, Echinochloa crus-galli
In short: as §3

barnyardgrass [2] = assay: Test B flooded paddy test; assay type: in vivo, Echinochloa crus-galli; conditions: 500 g ai/ha, Flood; scale of 0 to 100 where 0 is no effect and 100 is complete control
In short: as §1

corn = assay: Test A pre-/postemergence herbicide test; assay type: in vivo, Zea mays; conditions: Postemergence
In short: as §3

wheat = assay: Test A pre-/postemergence herbicide test; assay type: in vivo, Triticum aestivum; conditions: Postemergence
In short: as §3

ducksalad = assay: Test B flooded paddy test; assay type: in vivo, Heteranthera limosa; conditions: 500 g ai/ha, Flood; scale of 0 to 100 where 0 is no effect and 100 is complete control
In short: as §1

giant foxtail = assay: Test A pre-/postemergence herbicide test; assay type: in vivo, Setaria faberii; conditions: for Plant response rating, Foxtail, Giant: 0 to 100 scale
In short: as §3

kochia = assay: Test A pre-/postemergence herbicide test; assay type: in vivo, Kochia scoparia; conditions: for Plant response rating, Kochia: 0 to 100 scale
In short: as §3

rice = assay: Test B flooded paddy test; assay type: in vivo, Oryza sativa; conditions: 500 g ai/ha, Flood; scale of 0 to 100 where 0 is no effect and 100 is complete control
In short: as §1

ryegrass, Italian = assay: Test A pre-/postemergence herbicide test; assay type: in vivo, Lolium multiflorum; conditions: for Plant response rating, Ryegrass, Italian: 0 to 100 scale
In short: as §3

galium = assay: Test A postemergence herbicide test; assay type: in vivo, Galium aparine
In short: as §2

pigweed = assay: Test A pre-/postemergence herbicide test; assay type: in vivo, Amaranthus retroflexus; conditions: for Plant response rating, Pigweed: 0 to 100 scale
In short: as §3

[3] = 125 g ai/ha, 0 to 100 scale, 0 is no effect, 100 is complete control
[4] = 125 g ai/ha, visual rating, 0 no effect, 100 complete control, approximately 10 days, preemergence
[5] = Postemergence, 125 g ai/ha, 0 is no effect, 100 is complete control
[6] = preemergence, 500 g ai/ha, 0 is no effect and 100 is complete control

SMILES: O=C1NCC(c2ccc3c(c2)OC(F)(F)O3)C1C(=O)Nc1ccc(F)c(F)c1F (racemic) [Compound 162]
- Plant response rating, Sedge, Umbrella (sedge, umbrella): 0
- Plant response rating, Blackgrass (blackgrass; [3]): 50
- Blackgrass plant response rating (0 to 100 scale, 0 is no effect, 100 is complete control) (blackgrass; 500 g ai/ha): 50
- Plant response rating, Ragweed (ragweed; [4]): 0
- Plant response rating, Ragweed (ragweed; [5]): 0
- Ragweed plant response rating (0 to 100 scale, 0 is no effect, 100 is complete control) (ragweed; Postemergence, 500 g ai/ha): 40
- Plant response rating, Ragweed (ragweed; [6]): 60
- Plant response rating, Barnyardgrass (barnyardgrass [1]; 125 g ai/ha, visual rating, 0 to 100 scale, 0 no effect, 100 complete control, approximately 10 days, preemergence): 90
- Plant response rating, Barnyardgrass (barnyardgrass [1]; Postemergence, 125 g ai/ha, 0 to 100 scale, 0 is no effect, 100 is complete control): 70
- Barnyardgrass plant response rating (0 to 100 scale, 0 is no effect, 100 is complete control) (barnyardgrass [1]; Postemergence, 500 g ai/ha): 90
- Plant response rating, Barnyardgrass (barnyardgrass [1]; preemergence, 500 g ai/ha, 0 to 100 scale (0 no effect, 100 complete control)): 90
- Plant response rating, Barnyardgrass (barnyardgrass [2]): 75
- Plant response rating, Corn (corn; [3]): 30
- Corn plant response rating (0 to 100 scale, 0 is no effect, 100 is complete control) (corn; 500 g ai/ha): 60
- Plant response rating, Wheat (wheat; [3]): 0
- Wheat plant response rating (0 to 100 scale, 0 is no effect, 100 is complete control) (wheat; 500 g ai/ha): 50
- Plant response rating, Ducksalad (ducksalad): 100
- Plant response rating, Foxtail, Giant (giant foxtail; [4]): 80
- Plant response rating, Foxtail, Giant (giant foxtail; [5]): 90
- Foxtail, Giant plant response rating (0 to 100 scale, 0 is no effect, 100 is complete control) (giant foxtail; Postemergence, 500 g ai/ha): 90
- Plant response rating, Foxtail, Giant (giant foxtail; preemergence, 500 g ai/ha): 90
- Plant response rating, Kochia (kochia; [4]): 50
- Plant response rating, Kochia (kochia; [5]): 40
- Kochia plant response rating (0 to 100 scale, 0 is no effect, 100 is complete control) (kochia; Postemergence, 500 g ai/ha): 70
- Plant response rating, Kochia (kochia; [6]): 60
- Plant response rating, Rice (rice): 0
- Plant response rating, Ryegrass, Italian (ryegrass, Italian; [4]): 0
- Plant response rating, Ryegrass, Italian (ryegrass, Italian; [5]): 0
- Ryegrass, Italian plant response rating (0 to 100 scale, 0 is no effect, 100 is complete control) (ryegrass, Italian; Postemergence, 500 g ai/ha): 50
- Plant response rating, Ryegrass, Italian (ryegrass, Italian; [6]): 50
- Plant response rating, Galium (galium; [3]): 30
- Galium plant response rating (0 to 100 scale, 0 is no effect, 100 is complete control) (galium; 500 g ai/ha): 70
- Plant response rating, Pigweed (pigweed; [4]): 60
- Plant response rating, Pigweed (pigweed; [5]): 20
- Pigweed plant response rating (0 to 100 scale, 0 is no effect, 100 is complete control) (pigweed; Postemergence, 500 g ai/ha): 70
- Plant response rating, Pigweed (pigweed; [6]): 80
